Data from BindingDB's records for doi:10.1021/jm070574f (University of Copenhagen, 2007).

Biological target: Neuronal acetylcholine receptor subunit alpha-7 (Homo sapiens, UniProt P36544)
Test: Antagonist activity at human alpha-7 nAChR in tsA201 cells coexpressed with Ric3 by FMP assay

Sequence of Neuronal acetylcholine receptor subunit alpha-7 (P36544 whole entry): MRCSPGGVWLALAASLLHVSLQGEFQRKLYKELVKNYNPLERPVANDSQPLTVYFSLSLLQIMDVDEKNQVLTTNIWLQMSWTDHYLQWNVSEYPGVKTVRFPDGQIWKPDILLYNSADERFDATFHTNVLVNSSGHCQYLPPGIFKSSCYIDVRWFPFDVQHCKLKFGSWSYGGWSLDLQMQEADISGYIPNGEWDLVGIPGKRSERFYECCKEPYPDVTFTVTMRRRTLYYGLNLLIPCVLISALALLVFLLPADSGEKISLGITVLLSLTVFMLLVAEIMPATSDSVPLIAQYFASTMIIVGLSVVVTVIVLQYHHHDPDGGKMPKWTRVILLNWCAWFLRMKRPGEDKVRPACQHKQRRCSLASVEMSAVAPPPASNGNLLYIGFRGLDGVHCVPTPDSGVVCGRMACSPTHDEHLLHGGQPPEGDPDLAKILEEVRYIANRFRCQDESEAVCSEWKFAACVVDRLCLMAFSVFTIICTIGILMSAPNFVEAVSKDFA

`CCN1C[C@]2(COC(=O)c3ccccc3-n3c(O)cc(C)c3O)CC[C@H](OC)[C@]34[C@@H]5C[C@H]6[C@H](OC)[C@@H]5[C@](O)(C[C@@H]6OC)[C@@](O)([C@H]13)[C@@H](OC)[C@H]24` [METHYLLYCACONITINE] gave an IC50 of 8.3 nM.
